Source: ChEMBL document CHEMBL1201862, “PubChem BioAssay data set” (2004)
The source made the active and inactive calls.

Tests used:
[1] = biological target: Voltage-gated inwardly rectifying potassium channel KCNH2 (Homo sapiens, UniProt Q12809); conditions: Potency;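 note: confirmatory quantitative high-throughput screen measuring inhibition of hERG channel activity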
[2] = decrease of insulin promoter-GFP reporter – imaging, high-content screening, mouse beta cells (AID 1628); type: functional; conditions: MIN6
[3] = MIN6 cell viability loss – mouse insulinoma, cytotoxicity control, dose response (AID 2122); type: functional;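 note: confirmatory high-throughput counterscreen run to flag cytotoxic compounds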
[4] = biological target: Beta-galactosidase (Escherichia coli, UniProt Q8VNN2); experiment: PubChem AID 485352; type: functional
Beta-galactosidase, sequence (Q8VNN2 whole entry): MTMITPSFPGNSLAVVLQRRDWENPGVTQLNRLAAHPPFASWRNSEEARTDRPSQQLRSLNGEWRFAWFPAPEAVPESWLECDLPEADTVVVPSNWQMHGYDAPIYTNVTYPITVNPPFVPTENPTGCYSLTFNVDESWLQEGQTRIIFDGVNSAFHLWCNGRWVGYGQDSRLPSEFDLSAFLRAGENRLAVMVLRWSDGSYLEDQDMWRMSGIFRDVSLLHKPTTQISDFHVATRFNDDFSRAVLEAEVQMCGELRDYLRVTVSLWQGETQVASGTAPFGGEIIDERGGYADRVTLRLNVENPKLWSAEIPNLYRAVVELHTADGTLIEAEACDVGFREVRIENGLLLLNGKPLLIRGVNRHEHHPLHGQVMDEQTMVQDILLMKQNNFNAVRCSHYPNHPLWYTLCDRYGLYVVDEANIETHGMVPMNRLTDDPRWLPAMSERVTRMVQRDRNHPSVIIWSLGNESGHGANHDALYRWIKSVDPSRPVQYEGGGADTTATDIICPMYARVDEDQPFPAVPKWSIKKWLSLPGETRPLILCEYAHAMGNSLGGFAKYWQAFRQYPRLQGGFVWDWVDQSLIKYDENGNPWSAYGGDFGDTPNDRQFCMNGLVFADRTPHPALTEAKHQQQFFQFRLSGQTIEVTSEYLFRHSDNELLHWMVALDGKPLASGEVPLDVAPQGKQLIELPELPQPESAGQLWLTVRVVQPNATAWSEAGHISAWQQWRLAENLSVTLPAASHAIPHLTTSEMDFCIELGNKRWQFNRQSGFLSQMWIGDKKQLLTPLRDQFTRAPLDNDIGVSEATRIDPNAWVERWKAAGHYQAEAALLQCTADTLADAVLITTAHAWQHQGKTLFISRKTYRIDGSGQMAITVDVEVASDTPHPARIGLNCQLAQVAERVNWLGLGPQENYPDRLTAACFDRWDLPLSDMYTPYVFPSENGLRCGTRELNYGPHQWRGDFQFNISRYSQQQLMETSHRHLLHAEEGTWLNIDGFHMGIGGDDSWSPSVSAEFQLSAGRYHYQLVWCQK

[5] = biological target: T1, Type-1 angiotensin II receptor (Homo sapiens, UniProt P30556); experiment: antagonism of angiotensin II type 1 receptor – cell-based, uHTS hits, selectivity assay for APJ receptor antagonist project, dose response (AID 463214); type: functional;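 note: antagonist potency against angiotensin II stimulated AT1 response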
T1 sequence (P30556 whole entry): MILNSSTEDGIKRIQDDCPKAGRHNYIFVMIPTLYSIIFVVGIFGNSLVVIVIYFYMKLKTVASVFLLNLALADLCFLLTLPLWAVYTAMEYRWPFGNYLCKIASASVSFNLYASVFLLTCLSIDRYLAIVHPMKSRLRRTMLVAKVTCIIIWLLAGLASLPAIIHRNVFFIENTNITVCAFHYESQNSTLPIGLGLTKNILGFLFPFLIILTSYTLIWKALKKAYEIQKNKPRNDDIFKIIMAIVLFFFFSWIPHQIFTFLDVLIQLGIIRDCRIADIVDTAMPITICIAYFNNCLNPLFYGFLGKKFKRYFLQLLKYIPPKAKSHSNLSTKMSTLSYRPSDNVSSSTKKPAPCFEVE

[6] = test system: Vero; experiment: viability of Vero cells under compound – cytotoxicity control for flavivirus capping enzyme inhibitors (AID 588742); type: functional; conditions: Chlorocebus sabaeus
[7] = biological target: T2, Orexin/Hypocretin receptor type 1 (Homo sapiens, UniProt O43613); experiment: Homogeneous Time Resolved Fluorescence (HTRF)-based cell-based high throughput dose response assay for antagonists of the orexin 1 receptor (OX1R; HCRTR1). [Related pubchem assays (depositor defined):AID434989, AID435008, AID463079, AID485270, AID492963, AID492964, AID492965, AID493232, AID504717, AID504718]; type: functional
T2 sequence (O43613 whole entry): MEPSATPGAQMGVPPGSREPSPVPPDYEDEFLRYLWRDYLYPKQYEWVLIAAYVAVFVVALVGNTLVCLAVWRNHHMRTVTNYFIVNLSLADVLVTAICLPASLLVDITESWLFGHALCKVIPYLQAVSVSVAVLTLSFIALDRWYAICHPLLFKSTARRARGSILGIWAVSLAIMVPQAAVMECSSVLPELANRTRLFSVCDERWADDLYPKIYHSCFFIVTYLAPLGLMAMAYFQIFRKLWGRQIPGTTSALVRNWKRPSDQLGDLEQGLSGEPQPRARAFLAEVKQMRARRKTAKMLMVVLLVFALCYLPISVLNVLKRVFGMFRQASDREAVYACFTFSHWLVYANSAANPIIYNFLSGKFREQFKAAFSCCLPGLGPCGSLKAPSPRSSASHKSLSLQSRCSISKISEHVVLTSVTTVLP

[8] = (§1) Counterscreen for antagonists of the orexin 1 receptor (OX1R; HCRTR1): Fluorescence-based cell-based high throughput dose response assay to identify antagonists of the parental CHO cell line. [Related pubchem assays (depositor defined):AID434989, AID435008, AID463079, AID485270, AID492963, AID492964, AID492965, AID493232, AID504699, AID504701]; type: functional
[9] = biological target: T2, Orexin/Hypocretin receptor type 1; experiment: Fluorescence-based cell-based high throughput dose response assay for antagonists of the orexin 1 receptor (OX1R; HCRTR1). [Related pubchem assays (depositor defined):AID434989, AID435008, AID463079, AID485270, AID492963, AID492964, AID492965, AID493232, AID504717, AID504718]; type: functional
[10] = test system: CHO-K1; experiment: as §1, with “Homogeneous time resolved fluorescence (HTRF)-based” for “Fluorescence-based”, “cell-based” for “cell-based high throughput”, “CHO-K1” for “CHO”; type: functional; conditions: Cricetulus griseus;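 note: potency for inhibition of ATP-stimulated IP1 production as antagonists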
[11] = biological target: T3, E3 ubiquitin-protein ligase XIAP (Homo sapiens, UniProt P98170); experiment: small molecules displacing peptide from XIAP – biochemical, IAP family, fluorescence polarization (AID 1018); type: functional
T3 sequence (P98170 whole entry): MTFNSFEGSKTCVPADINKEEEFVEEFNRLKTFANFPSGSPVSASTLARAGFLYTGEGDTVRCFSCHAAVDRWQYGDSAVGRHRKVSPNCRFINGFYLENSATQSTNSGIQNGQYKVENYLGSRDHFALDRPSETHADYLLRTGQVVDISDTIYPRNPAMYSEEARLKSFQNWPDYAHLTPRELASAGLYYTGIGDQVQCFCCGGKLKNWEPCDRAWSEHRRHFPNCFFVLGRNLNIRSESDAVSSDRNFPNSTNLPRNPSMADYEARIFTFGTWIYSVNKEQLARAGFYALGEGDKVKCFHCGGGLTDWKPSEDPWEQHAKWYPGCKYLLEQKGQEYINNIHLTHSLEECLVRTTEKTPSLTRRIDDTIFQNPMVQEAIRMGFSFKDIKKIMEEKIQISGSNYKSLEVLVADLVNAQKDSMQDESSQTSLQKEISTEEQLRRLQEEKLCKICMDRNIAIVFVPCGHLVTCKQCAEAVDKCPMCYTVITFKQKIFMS

[12] = biological target: T3, E3 ubiquitin-protein ligase XIAP; experiment: Counter Screen using XIAP-Bir3 for Chemical Antagonists of Bir1/2 domains of IAP-family anti-apoptotic proteins. [Related pubchem assays (depositor defined):AID1018, AID1449, AID1514, AID1638, AID1749, AID1750, AID488957, AID488963]
[13] = test system: INS1; experiment: INS-1E survival protection against cytokine death – cell-based, luminescence, retest, dose response (AID 449756); type: functional; conditions: Rattus norvegicus;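 note: cell death triggered by IL-1 beta plus TNF-alpha plus IFN-gamma mixture; protective hits raise ATP signal compared with cytokine alone wells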
[14] = test system: H9c2; experiment: cells; type: functional, cell-based; conditions: Rattus norvegicus, H9c2, Myocardium;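 note: confirmatory concentration-response retest of ultra-high-throughput screening hits for modulation of myocardial damage; cell death induced by hydrogen peroxide oxidative stress; compound pretreatment for 60 min then peroxide exposure for 2 h; potency is for protecting the cells against peroxide damage rather than for killing them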
[15] = biological target: T4, Heat shock factor protein 1 (Mus musculus, UniProt P38532); experiment: enhancement of HSF1-driven luciferase signal – cell-based, NIH3T3, luminescence, dose retest, confirmation (AID 435004); type: functional;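 note: stress induced by proteasome inhibitor MG132 added 30 min after compound; luciferase reporter driven by HSF1 response element in NIH3T3 cells; actives raise luminescence as potentiators of the MG132 stress response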
T4 sequence (P38532 whole entry): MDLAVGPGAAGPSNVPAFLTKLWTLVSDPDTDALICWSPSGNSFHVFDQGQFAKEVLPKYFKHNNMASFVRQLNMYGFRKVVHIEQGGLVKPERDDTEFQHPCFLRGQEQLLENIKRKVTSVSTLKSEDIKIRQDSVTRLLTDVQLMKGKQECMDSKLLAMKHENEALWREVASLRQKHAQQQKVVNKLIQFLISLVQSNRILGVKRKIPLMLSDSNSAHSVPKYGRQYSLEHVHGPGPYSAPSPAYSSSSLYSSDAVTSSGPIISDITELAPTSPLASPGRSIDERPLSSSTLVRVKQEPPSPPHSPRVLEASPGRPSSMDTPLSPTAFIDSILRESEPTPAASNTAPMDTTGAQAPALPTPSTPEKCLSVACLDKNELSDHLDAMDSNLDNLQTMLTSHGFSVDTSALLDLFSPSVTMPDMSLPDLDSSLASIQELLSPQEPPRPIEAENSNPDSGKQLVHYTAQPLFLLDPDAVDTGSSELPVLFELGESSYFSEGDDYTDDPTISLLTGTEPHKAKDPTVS

[16] = biological target: T5, Apoptotic protease-activating factor 1 (Homo sapiens, UniProt O14727); type: functional
T5 sequence (O14727 whole entry): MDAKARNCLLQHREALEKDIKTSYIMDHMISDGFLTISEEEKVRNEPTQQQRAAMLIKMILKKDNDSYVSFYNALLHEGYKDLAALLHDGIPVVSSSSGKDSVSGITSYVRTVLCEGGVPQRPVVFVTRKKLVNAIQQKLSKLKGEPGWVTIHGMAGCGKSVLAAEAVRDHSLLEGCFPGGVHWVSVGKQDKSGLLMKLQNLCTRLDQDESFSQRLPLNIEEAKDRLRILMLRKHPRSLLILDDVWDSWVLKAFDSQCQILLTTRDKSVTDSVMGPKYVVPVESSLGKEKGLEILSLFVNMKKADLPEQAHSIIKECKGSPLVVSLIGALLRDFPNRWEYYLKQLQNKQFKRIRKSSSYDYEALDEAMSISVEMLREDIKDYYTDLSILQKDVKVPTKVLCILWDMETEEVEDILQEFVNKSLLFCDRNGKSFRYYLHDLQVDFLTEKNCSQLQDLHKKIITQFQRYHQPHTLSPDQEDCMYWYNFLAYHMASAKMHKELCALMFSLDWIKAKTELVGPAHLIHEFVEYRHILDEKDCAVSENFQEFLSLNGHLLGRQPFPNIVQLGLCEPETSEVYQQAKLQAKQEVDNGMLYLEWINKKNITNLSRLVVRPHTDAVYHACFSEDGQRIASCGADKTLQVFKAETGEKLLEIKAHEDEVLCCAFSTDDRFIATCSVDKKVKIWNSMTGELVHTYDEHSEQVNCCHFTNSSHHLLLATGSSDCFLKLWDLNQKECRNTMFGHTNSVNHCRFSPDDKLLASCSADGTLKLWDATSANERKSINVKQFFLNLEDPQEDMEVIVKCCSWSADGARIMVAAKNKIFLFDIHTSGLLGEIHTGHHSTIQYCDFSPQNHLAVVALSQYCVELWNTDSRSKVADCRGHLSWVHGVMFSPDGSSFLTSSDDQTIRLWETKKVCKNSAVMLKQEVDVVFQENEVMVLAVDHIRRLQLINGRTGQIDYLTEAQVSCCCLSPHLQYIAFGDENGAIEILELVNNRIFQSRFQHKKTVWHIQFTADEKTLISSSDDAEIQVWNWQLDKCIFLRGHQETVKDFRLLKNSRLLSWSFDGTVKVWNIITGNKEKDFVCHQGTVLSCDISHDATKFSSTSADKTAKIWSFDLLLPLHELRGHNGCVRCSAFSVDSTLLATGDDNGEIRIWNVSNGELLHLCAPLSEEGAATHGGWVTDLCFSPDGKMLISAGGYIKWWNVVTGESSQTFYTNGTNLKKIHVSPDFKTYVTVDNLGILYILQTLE

[17] = NIH3T3 cell viability loss – ATP luminescence, mouse fibroblasts, counter-screen, dose response (AID 2010); type: functional, cell-based;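 note: cells exposed to compound for about 90 hours before reading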
[18] = Trypanosoma cruzi growth suppression in host cells – NIH3T3 host cells, beta-gal luminescence, confirmation (AID 2044); type: functional, cell-based;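 note: intracellular parasites grown in NIH/3T3 mouse fibroblasts as host cells; luminescent beta-galactosidase reporter signal from transgenic T. cruzi replicating inside host cells; inhibitors lower the luminescence signal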
[19] = fluconazole-exposed Candida albicans growth modulators – fluorescence, retest, confirmation (AID 2467); type: functional, cell-based
[20] = biological target: Cytochrome P450 2C19 (Homo sapiens, UniProt P33261); experiment: Cytochrome panel assay with activity outcomes. Panel member name: p450-cyp2c19 Compounds with AC50 equal or less than 10 uM are considered active; type: functional; conditions: read-out: AC50
Cytochrome P450 2C19, sequence (P33261 whole entry): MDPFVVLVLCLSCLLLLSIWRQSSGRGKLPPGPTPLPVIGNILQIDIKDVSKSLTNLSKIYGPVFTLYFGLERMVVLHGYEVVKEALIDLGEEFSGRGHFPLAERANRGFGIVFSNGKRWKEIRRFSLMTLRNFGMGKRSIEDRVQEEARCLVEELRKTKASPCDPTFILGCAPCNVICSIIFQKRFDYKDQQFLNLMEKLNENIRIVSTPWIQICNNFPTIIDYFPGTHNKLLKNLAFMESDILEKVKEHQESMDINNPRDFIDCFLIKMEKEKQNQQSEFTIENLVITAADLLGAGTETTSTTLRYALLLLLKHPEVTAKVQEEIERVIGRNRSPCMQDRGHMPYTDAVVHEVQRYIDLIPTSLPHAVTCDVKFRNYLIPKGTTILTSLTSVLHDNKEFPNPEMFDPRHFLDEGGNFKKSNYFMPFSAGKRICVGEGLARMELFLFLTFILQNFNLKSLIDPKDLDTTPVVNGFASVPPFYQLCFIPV

[21] = biological target: DNA dC->dU-editing enzyme APOBEC-3A (Homo sapiens, UniProt P31941); experiment: Dose Response confirmation of small molecule APOBEC3A DNA Deaminase Inhibitors via a fluorescence-based single-stranded DNA deaminase assay. [Related pubchem assays (depositor defined):AID493011, AID493024]; type: functional
DNA dC->dU-editing enzyme APOBEC-3A, sequence (P31941 whole entry): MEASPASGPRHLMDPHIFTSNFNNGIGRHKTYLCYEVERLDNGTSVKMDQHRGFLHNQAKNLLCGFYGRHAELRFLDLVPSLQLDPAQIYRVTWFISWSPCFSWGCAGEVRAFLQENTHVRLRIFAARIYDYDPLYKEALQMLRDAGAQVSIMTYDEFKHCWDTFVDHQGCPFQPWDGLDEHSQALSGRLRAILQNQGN

[22] = biological target: Cytochrome P450 3A4 (Homo sapiens, UniProt P08684);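 note: CYP3A4 tested as one member of a cytochrome P450 panel screen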
Cytochrome P450 3A4, sequence (P08684 whole entry): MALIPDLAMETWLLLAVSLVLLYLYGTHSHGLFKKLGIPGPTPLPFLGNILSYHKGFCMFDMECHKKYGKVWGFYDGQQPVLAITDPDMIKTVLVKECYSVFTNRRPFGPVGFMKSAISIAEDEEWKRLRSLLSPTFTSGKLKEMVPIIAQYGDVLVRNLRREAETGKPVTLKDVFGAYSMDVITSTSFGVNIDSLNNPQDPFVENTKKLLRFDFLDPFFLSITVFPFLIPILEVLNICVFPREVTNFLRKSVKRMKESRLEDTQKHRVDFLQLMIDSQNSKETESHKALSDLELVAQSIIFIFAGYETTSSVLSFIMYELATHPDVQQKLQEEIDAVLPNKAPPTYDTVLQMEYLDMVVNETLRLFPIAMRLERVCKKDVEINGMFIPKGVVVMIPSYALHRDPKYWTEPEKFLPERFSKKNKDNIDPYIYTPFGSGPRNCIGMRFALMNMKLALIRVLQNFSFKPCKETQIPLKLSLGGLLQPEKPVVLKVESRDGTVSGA

[23] = biological target: DNA dC->dU-editing enzyme APOBEC-3G (Homo sapiens, UniProt Q9HC16); type: functional;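 note: Dose-response counterscreen measuring inhibition of APOBEC3G DNA deaminase activity, run while confirming APOBEC3A inhibitors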
DNA dC->dU-editing enzyme APOBEC-3G, sequence (Q9HC16 whole entry): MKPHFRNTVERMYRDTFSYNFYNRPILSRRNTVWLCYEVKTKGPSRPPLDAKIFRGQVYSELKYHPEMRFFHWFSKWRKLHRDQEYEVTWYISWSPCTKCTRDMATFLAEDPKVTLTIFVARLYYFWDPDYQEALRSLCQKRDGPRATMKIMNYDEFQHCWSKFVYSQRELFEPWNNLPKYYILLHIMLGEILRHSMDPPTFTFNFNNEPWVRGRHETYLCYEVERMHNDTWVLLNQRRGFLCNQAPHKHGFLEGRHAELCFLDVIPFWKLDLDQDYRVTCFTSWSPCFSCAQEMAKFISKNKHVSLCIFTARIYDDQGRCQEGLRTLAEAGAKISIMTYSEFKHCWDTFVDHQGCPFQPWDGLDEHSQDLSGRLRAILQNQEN

[24] = NIH-3T3 fibroblast cytotoxicity, dose response, cytotoxicity control, cell-based, fluorescence, Alamar Blue, secondary assay (AID 2327); type: functional;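 note: NIH-3T3 mouse fibroblasts cultured with fluconazole at 8 µg/mL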

Voltage-gated inwardly rectifying potassium channel KCNH2, sequence (Q12809 whole entry): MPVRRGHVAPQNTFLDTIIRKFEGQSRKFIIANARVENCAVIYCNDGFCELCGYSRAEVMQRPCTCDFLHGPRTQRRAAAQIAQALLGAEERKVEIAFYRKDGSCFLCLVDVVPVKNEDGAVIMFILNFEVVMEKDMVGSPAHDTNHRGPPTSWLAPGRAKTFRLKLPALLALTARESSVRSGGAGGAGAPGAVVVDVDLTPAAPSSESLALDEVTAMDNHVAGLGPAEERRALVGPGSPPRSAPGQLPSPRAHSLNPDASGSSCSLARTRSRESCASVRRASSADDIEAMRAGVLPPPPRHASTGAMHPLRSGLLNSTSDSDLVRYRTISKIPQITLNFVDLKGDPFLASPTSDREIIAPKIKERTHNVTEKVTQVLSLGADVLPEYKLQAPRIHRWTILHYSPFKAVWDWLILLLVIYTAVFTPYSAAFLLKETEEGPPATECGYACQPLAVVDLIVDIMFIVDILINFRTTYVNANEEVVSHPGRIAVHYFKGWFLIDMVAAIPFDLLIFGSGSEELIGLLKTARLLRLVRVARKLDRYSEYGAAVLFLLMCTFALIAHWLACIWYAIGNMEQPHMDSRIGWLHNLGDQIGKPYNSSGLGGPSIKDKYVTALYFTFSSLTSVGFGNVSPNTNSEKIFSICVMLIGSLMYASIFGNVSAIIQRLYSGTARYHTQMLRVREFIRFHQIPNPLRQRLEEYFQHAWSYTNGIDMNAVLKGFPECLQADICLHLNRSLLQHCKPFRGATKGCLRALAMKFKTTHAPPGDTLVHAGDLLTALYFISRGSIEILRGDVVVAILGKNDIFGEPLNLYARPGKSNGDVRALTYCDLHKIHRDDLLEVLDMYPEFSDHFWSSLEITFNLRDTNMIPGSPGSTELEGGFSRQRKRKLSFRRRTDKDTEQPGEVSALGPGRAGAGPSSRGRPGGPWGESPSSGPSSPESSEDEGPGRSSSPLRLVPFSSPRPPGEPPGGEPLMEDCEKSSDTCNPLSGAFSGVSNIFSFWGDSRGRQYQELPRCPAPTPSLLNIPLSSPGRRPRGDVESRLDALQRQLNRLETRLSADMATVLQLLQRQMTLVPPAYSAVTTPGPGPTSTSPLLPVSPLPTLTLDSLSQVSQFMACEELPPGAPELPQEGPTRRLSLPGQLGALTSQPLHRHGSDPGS

## CC(/C=C/c1cccc(Oc2ccc(F)cc2)c1)N(O)C(N)=O (configuration not stated)
[1]
  AC50: 0.2 µM (inconclusive)

## Cc1cc(NC(=O)c2cnn3c(C(F)(F)F)cc(-c4ccccc4)nc23)no1
[2]
  IC50: 1.99 µM (active)
[3]
  IC50: > 16 µM (inactive)

## Cc1nn(CCC(=O)NN=C(S)Nc2ccccc2)c(C)c1Br
[4]
  EC50: > 40 µM (inactive)
[5]
  IC50: > 40 µM (not active)

## COc1ccc(C(=O)NC2CC(C)(C)Cc3occc32)cc1 (configuration not stated)
[6]
  CC50: > 40 µM (active)

## O=c1sc(Nc2ccccc2)nc2ccsc12
[7]
  IC50: 2.43 µM (active)
[8]
  IC50: > 49.8 µM (inactive)
[9]
  IC50: 12.9 µM (inactive)
[10]
  IC50: > 66.2 µM (inactive)

## c1ccc(CCc2nc(-c3ccc(-n4cccc4)cc3)no2)cc1
[11]
  IC50: > 100 µM (not active)
[12]
  IC50: > 100 µM (inactive)

## COc1ccc2c(c1)C(=O)[C@@H](O)[C@H](c1ccc(OC)c(Br)c1)O2
[4]
  EC50: > 40 µM (inactive)
[13]
  AC50: 4.2 µM (active)
[5]
  IC50: 34.6 µM (not active)
[14]
  IC50: > 79 µM (inactive)

## COC(=O)c1ccc(/C=C/C(=O)c2ccc(OC)cc2)cc1
[11]
  IC50: > 100 µM (not active)
[12]
  IC50: > 100 µM (inactive)

## O=C=Nc1ccc(Cc2ccc(N=C=O)cc2)cc1
[1]
  AC50: 79.4 µM (inconclusive)

## COC(=O)C1NN=C(C(=O)c2ccc(Cl)cc2)C1c1ccc(OC)cc1 (configuration not stated)
[4]
  EC50: > 40 µM (inactive)
[15]
  EC50: > 260 µM (inactive)
[5]
  IC50: 28.4 µM (not active)

## CC1(C)Cc2cccc(OCC(=O)N3CCN(c4cccc(C(F)(F)F)c4)CC3)c2O1
[16]
  IC50: > 100 µM (inactive)

## CN(/C=C/C1=[N+](C)c2ccccc2C1(C)C)c1ccccc1
[17]
  EC50: > 60 µM (inconclusive)
[18]
  EC50: 0.335 µM (active)
[19]
  EC50: > 38 µM (not active)
[20]
  AC50: 0.00708 µM (inconclusive)
[21]
  IC50: 1.67 µM (active)
[22]
  AC50: 31.6 µM (inconclusive)
[23]
  IC50: 2.31 µM (active)
[24]
  EC50: > 160 µM (inactive)

## CCCCOC(=O)c1ccccc1C(=O)OCCCC [DIBUTYL PHTHALATE]
[1]
  AC50: 79.4 µM (inconclusive)
